IC50 and EC50 data for four molecules are collected here from patent US20250129090A1, “COMPOSITIONS USEFUL FOR MODULATING SPLICING” (SKYHAWK THERAPEUTICS, INC., priority 2021, published 2025).

One experiment has as its system total ATXN3 protein. Put plainly: ATXN3 Total Protein Assay. The class given is cell-based. The settings on record: Human neuroblastoma SK-N-MC cells, incubation 48 hours, MSD assay; read-out: ATXN3 Protein Potency IC50. As for the experimental part: Human neuroblastoma SK-N-MC cells were seeded at 10,000 cells/well in 384 well plates one day prior to compound treatment. The concentrations of compounds were tested at appropriate doses ranging from 30 μM to 0.6 nM. After incubation for 48 hours, the cells were lysed with 25 μL of lysis buffer containing protease inhibitors, and total ATXN3 protein levels were assessed by Mesoscale Discovery (MSD) assay developed with one pair of anti-ATXN3 antibodies. The capture and detect antibodies were raised in mouse and rabbit respectively. Anti-rabbit MSD-ST antibody was used for secondary antibody.
ATXN3 recombinant protein was used for standards. The readouts were captured with 35 μL of MSD read buffer and multi-array 384-well high binding plates.

The subject of experiment [1] is exon 4 skipped transcripts of ATXN3. Put plainly: ATXN3 Quantitative Splicing Assay. The class given is cell-based. The settings on record: Human neuroblastoma SK-N-MC cells, treated 24 h, qPCR; read-out: ATXN 3 E4 Skipping EC50. On the procedure:
Human neuroblastoma SK-N-MC cells were plated in 384-well plates at 20,000 cells/well. Twenty-four hours after plating, cells were treated with compounds for 24 h at appropriate concentrations ranging from 30 µM to 0.6 nM (0.3% DMSO). Treated cells were lysed in 15 μL of lysis buffer, and cDNA was synthesized using the Fast Advanced Cells-to-Ct kit. Two μL of each cDNA was used in qPCR reactions to confirm the exon 4 skipped transcripts of ATXN3. A second set of primers/probe E4E5 was used to detect the transcripts containing exon 4. The third set of primers/probe E8E9 was used to detect total gene level of ATXN3. The qPCR reactions were prepared in 384-well plates in 10 μL volume, using TaqMan™ Fast Advanced Master Mix with primers and probes shown in the table below. Reactions were run in a Quant Studio 6 qPCR instrument with default settings.
The primers and probes are listed below in Table 3.
A general note: Quantitative PCR measures a nucleic acid by following its amplification.

A value given as a limit tells only on which side of the number the result lay.

Take `Cc1csc2c(NCc3cccs3)nnnc12` [Compound 1, 7-methyl-N-(thiophen-2-ylmethyl)thieno[3,2-d][1,2,3]triazin-4-amine]: in the experiment on total ATXN3 protein, the IC50 (commonly the point on the concentration scale where inhibition reaches its midpoint) is no less than 10 µM. For the same molecule, in experiment [1], the EC50 (commonly the concentration needed to bring the measured effect to its halfway point) is no less than 10 µM.
Turning to `Cc1c(C[C@H](C)N)sc2c(NCc3cccs3)nnnc12` [Compound 2, (S)-6-(2-aminopropyl)-7-methyl-N-(thiophen-2-ylmethyl)thieno[3,2-d][1,2,3]triazin-4-amine], the IC50 with total ATXN3 protein fell in the range of 0.501 to 5 µM. In experiment [1], the EC50 lay in the range of 0.501 to 5 µM.
For the molecule `Cc1csc2c(NCc3ccco3)nnnc12` [Compound 3, N-(furan-2-ylmethyl)-7-methylthieno[3,2-d][1,2,3]triazin-4-amine], in the experiment with total ATXN3 protein, the IC50 is no less than 10 µM. Besides, in experiment [1], the EC50 is no less than 10 µM.
On to `Cc1c(C[C@H](C)N)sc2c(NCc3ccco3)nnnc12` [Compound 4, (S)-6-(2-aminopropyl)-N-(furan-2-ylmethyl)-7-methylthieno[3,2-d][1,2,3]triazin-4-amine], for which the IC50 in the experiment with total ATXN3 protein lay in the range of 0.501 to 5 µM. Further, the EC50 in experiment [1] was no less than 10 µM.
